According to article PMC10376691, “Inhibition of Acetylcholinesterase and Amyloid-β Aggregation by Piceatannol and Analogs: Assessing In Vitro and In Vivo Impact on a Murine Model of Scopolamine-Induced Memory Impairment” (Antioxidants, 2023):
“Also recorded” adds a separate entry of the source. Read-outs that look alike come from different tables or passages of the source.

What was measured:
[1] = rats, cited from earlier work
[2] = oral administration to rats; cited from earlier work
SH-SY5Y cells [3] = test: Cytotoxicity on SH-SY5Y cells (MTT); format: cell-based; settings: 1, 2, 5 and 10 μM, MTT (Figure S1)
Description: The human SH-SY5Y neuroblastoma cell lines (CRL-2266, Lot No. 58979771) were purchased from American Type Culture Collection (Manassas, VA, USA) and used as models to investigate PIC and its analogs for neuroprotective activities against Aβ-induced cell deaths and the stimulation of neurite outgrowths. The SH-SY5Y cells were grown in DMEM/F-12 medium supplemented with 10% FBS at 37 °C under a humidified atmosphere and 5% CO2 [41]. […]. The SH-SY5Y cells (10,000 cells/well) were seeded and cultured in a DMEM/F-12 medium containing 10% FBS for 24 h at 37 °C under a humidified atmosphere and 5% CO2. […] The medium was then removed, and 40 μg/mL Aβ peptide (25–35) (dissolved in PBS) or an equal aliquot of PBS was added to the medium for another 24 h culture. The MTT was used to evaluate cell viability, and the absorbance at 570 nm was determined. The DMSO used instead of the sample solution was blank (recognized as 100%), and each treatment was expressed as relative cell viability (%). […] To measure cell viability and quantify the neurite outgrowths of the treated SH-SY5Y in a 96-well plate, the neurite outgrowth staining kit (a two-color fluorescence assay kit) was used, following a previous report or the protocol in the manufacturer’s manual (publication number: MAN0007224), which included a cell membrane-stained fluorescent dye (orange-red fluorescence), a cell viability indicator (green fluorescence), and a reagent for background masking. The fluorescence ratios of Ex555nm/Em565nm and Ex495nm/Em515nm were determined for the neurite outgrowths and the cell viabilities, respectively. […]
The following supporting information can be downloaded at: https://www.mdpi.com/article/10.3390/antiox12071362/s1. […] The MTT was used to evaluate cell viability, and the absorbance at 570 nm was determined. The DMSO used instead of the sample solution was blank (recognized as 100%), and each treatment was expressed as relative cell viability (%). […]

SH-SY5Y cells [4] = test: Neuroprotection against Aβ peptide (25–35)-induced cell deaths (MTT); format: cell-based, human; settings: pre-treatment 1, 2 and 10 μM for 24 h, then 40 μg/mL Aβ (25–35) 24 h; vs control p < 0.05
Description: The human SH-SY5Y neuroblastoma cell lines (CRL-2266, Lot No. 58979771) were purchased from American Type Culture Collection (Manassas, VA, USA) and used as models to investigate PIC and its analogs for neuroprotective activities against Aβ-induced cell deaths and the stimulation of neurite outgrowths. The SH-SY5Y cells were grown in DMEM/F-12 medium supplemented with 10% FBS at 37 °C under a humidified atmosphere and 5% CO2 [41]. […]. The SH-SY5Y cells (10,000 cells/well) were seeded and cultured in a DMEM/F-12 medium containing 10% FBS for 24 h at 37 °C under a humidified atmosphere and 5% CO2. […] The medium was then removed, and 40 μg/mL Aβ peptide (25–35) (dissolved in PBS) or an equal aliquot of PBS was added to the medium for another 24 h culture. The MTT was used to evaluate cell viability, and the absorbance at 570 nm was determined. The DMSO used instead of the sample solution was blank (recognized as 100%), and each treatment was expressed as relative cell viability (%). To study the stimulation of neurite outgrowth, the SH-SY5Y cells (5000 cells/well) were seeded on a 96-well plate pre-coated with poly-L-lysine and then cultured in the DMEM/F-12 medium containing 10% FBS overnight at 37 °C under a humidified atmosphere and 5% CO2. After being removed from the culture medium, each PIC, GNT, RHA, and isoRHA (at a final concentration of 10 μM in the 0.1%DMSO) or 0.1% DMSO (the control) was added to the DMEM/F-12 medium containing 10% FBS and refreshed every three days. On day 3 and day 6, each of the culture plates was photographed using an inverted microscope (ECLIPSE TS100, Nikon Instruments Inc., Tokyo, Japan). The culture medium was removed and washed with PBS, and the cultured cells in each well were fixed with 4% paraformaldehyde. To measure cell viability and quantify the neurite outgrowths of the treated SH-SY5Y in a 96-well plate, the neurite outgrowth staining kit (a two-color fluorescence assay kit) was used, following a previous report or the protocol in the manufacturer’s manual (publication number: MAN0007224), which included a cell membrane-stained fluorescent dye (orange-red fluorescence), a cell viability indicator (green fluorescence), and a reagent for background masking. The fluorescence ratios of Ex555nm/Em565nm and Ex495nm/Em515nm were determined for the neurite outgrowths and the cell viabilities, respectively. The value for the control was recognized as 100%, and each treatment was expressed relative to the control.

[5] = tested on: mild to moderate AD patients; settings: human trial, 52 weeks, cited from earlier work
Aβ peptide (1–42) = target: T1, Aβ peptide (1–42) (Homo sapiens, UniProt P05067); test: biochemical
T1 construct: The Aβ peptide (1–42) was synthesized and purchased from Kelowna International Scientific Inc; purchased Kelowna International Scientific Inc. (New Taipei, Taiwan); host or cells: chemical synthesis
T1 sequence (P05067 672-713): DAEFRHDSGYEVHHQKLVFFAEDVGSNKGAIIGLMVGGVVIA
Description: To prepare the 10 μM Aβ peptide working solution, commercial Aβ peptide was first weighted and dissolved in HFIP to 1 mM. Next, the solvent was evaporated in a hood and then re-dissolved using 100 μL of 60 mM NaOH. It was then diluted to 10 μM working solutions with 50 mM phosphate buffer (pH 7.4, containing 150 mM sodium chloride and 1 mM EDTA), following previous reports. […] DMSO instead of the sample solution was used as the control. The 50 mM phosphate buffer was used instead of the Aβ working solution as the sample blank. […] The IC50 of the inhibition against the Aβ aggregation of PIC and its analogs was calculated from each linear equation using three test concentrations and their inhibition capacities.

[6] = Neurite outgrowth and cell viability, two-color fluorescence assay kit; format: cell-based; settings: human, 3-day or 6-day treatment, green fluorescence, read-out: cell viability relative to the control
Description: (§1) The SH-SY5Y cells were grown in DMEM/F-12 medium supplemented with 10% FBS at 37 °C under a humidified atmosphere and 5% CO2 [41]. […] The MTT was used to evaluate cell viability, and the absorbance at 570 nm was determined. The DMSO used instead of the sample solution was blank (recognized as 100%), and each treatment was expressed as relative cell viability (%). To study the stimulation of neurite outgrowth, the SH-SY5Y cells (5000 cells/well) were seeded on a 96-well plate pre-coated with poly-L-lysine and then cultured in the DMEM/F-12 medium containing 10% FBS overnight at 37 °C under a humidified atmosphere and 5% CO2. After being removed from the culture medium, each PIC, GNT, RHA, and isoRHA (at a final concentration of 10 μM in the 0.1%DMSO) or 0.1% DMSO (the control) was added to the DMEM/F-12 medium containing 10% FBS and refreshed every three days. On day 3 and day 6, each of the culture plates was photographed using an inverted microscope (ECLIPSE TS100, Nikon Instruments Inc., Tokyo, Japan). The culture medium was removed and washed with PBS, and the cultured cells in each well were fixed with 4% paraformaldehyde. To measure cell viability and quantify the neurite outgrowths of the treated SH-SY5Y in a 96-well plate, the neurite outgrowth staining kit (a two-color fluorescence assay kit) was used, following a previous report or the protocol in the manufacturer’s manual (publication number: MAN0007224), which included a cell membrane-stained fluorescent dye (orange-red fluorescence), a cell viability indicator (green fluorescence), and a reagent for background masking. […] The value for the control was recognized as 100%, and each treatment was expressed relative to the control.

SH-SY5Y cells [7] = test: as above; format: cell-based; settings: 10 μM; for stimulation of neurite outgrowths: 3-day or 6-day treatment, orange-red fluorescence, vs control
Description: as §1

recombinant human AChE = target: T2, recombinant human AChE (Homo sapiens, UniProt P22303); test: AChE inhibitory activity in vitro (acetylthiocholine/DTNB); format: biochemical
T2 construct: purchased R&D Systems Inc. (Minneapolis, MN, USA)
T2 sequence (P22303 32-614): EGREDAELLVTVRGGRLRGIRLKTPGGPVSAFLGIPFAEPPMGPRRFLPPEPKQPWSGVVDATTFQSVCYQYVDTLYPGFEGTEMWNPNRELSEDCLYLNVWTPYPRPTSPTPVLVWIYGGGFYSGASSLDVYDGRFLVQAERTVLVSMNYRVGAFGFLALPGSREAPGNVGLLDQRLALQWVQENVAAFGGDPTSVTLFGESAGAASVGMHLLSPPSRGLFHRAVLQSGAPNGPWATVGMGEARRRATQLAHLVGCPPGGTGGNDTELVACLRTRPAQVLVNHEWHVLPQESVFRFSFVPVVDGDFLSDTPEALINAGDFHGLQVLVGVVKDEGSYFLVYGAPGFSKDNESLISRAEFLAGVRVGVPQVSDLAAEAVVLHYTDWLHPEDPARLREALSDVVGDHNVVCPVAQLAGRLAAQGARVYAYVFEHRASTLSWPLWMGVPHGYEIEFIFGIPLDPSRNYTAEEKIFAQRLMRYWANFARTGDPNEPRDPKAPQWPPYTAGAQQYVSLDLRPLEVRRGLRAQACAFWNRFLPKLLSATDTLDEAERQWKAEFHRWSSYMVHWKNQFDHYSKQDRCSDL
Description: Commercially synthesized acetylthiocholine iodide was hydrolyzed using AChE to release thiocholine, which was coupled with DTNB to generate the yellowish 5-thio-2-nitrobenzoate for in vitro AChE activity assays. For the AChE inhibitory activity assay, each analog was dissolved in the DMSO, and final concentrations of 100, 200, and 500 μM were used for comparisons. An equal volume of DMSO instead of the sample solution was used in the blank group and expressed as 100% AChE activity. […] AChE inhibition (%) was calculated as follows: [(A405blank − A405sample)/(A405blank)] × 100%.

[8] = DPPH radical scavenging activity; settings: 120 μM DPPH in methanol, 37 °C, 20 min
Description: DPPH radical scavenging activity was assayed following a previous report, with some modifications. […] DMSO was used instead of a sample solution in the blank group. […] The scavenging activity of the DPPH radical (%) was calculated with the following equation: (△A515blank − △A515sample) ÷ △A515blank × 100%. The IC50 of the DPPH radical scavenging activity of PIC and its analogs or that of Trolox was calculated from each linear equation by three test concentrations and their radical scavenging activities.

[9] = tested on: scopolamine-induced amnesiac ICR mice; test: Passive avoidance test in scopolamine-induced amnesiac ICR mice; format: in vivo, mouse; settings: PIC 50 mg/kg oral once a day, donepezil 5 mg/kg oral, scopolamine 1 mg/kg i.p.
Excerpt: The scopolamine-induced cognitive dysfunctions of amnesiac ICR mice were used to evaluate the effects of PIC pre-treatments on the improvement of learning and memory functions, following previous reports. The animal experimental protocols were reviewed and approved by the Institutional Animal Care and Use Committee, Taipei Medical University (No. LAC-2021-0488). After a two-week acclimation, the mice were randomly divided into four groups (N = 5 for each group). In the first stage, the mice in the PIC group were orally pre-treated with PIC (50 mg/kg) using a feeding tube, once a day from day 1 to day 7; the mice in the blank, control, and donepezil groups were treated with the same volume of distilled water from day 1 to day 7. In the second stage, on day 8 and day 9, the mice in the PIC group and the donepezil group were orally treated once with PIC (50 mg/kg) and donepezil (positive control, 5 mg/kg), respectively, using a feeding tube; the mice in the blank and the control groups were treated with the same volume of distilled water. After 30 min, each mouse was injected intraperitoneally with scopolamine (1 mg/kg, dissolved in PBS), and the mice in the blank group were each injected with an equal volume of PBS instead of the scopolamine solution. Again, 30 min after the scopolamine or PBS injection, a learning and memory evaluation was performed on each mouse with the use of a 2-day passive avoidance test. All the mice were sacrificed at the end of the animal experiments, and the brain tissues of the mice in each group were isolated, weighted, and stored at −80 °C for further use.
A 2-day passive avoidance test, which included an acquisition trial on the first day and a retention trial on the second day, was used to evaluate the learning and memory functions of the scopolamine-induced cognitive dysfunctions of amnesiac ICR mice after PIC and donepezil treatments, following previous reports. A shuttle chamber (AccuScan Instruments Inc., Columbus, OH, USA) with a light box and a dark box separated by a sliding door was used. On day 8, after acclimation around the shuttle chamber for 30 min, each scopolamine-injected or PBS-injected mouse was placed in the light box for the acquisition trial. Once the mouse entered the dark box, the step-through latency (s) was recorded, and the sliding door was closed at the same time. Immediately after, the mouse was administered an electric foot shock (0.3 mA for 3 s) via the wired metal floor and then sent back to the cage. […] The step-through latency (period of time that each mouse stayed in the light box) was recorded again. […] The protein content of the whole brain extracts from the mice was quantified using the BCA protein kit, with bovine serum albumin as the standard protein. […]

[10] = 500 mg once daily up to 1000 mg twice daily

Oc1ccc(C=Cc2cc(O)cc(O)c2)cc1 [RSV, 3,5,4′-trihydroxystilbene]
AUC0–8h in plasma, intact compound ([1]; co-administration of PIC and RSV, each at 180 μmol/kg): 4.1 µM·h
AUC0–8h in plasma, intact compound ([1]; intragastric, 90 μmol/kg): 2.0 µM·h
AUC0–8h in plasma, intact compound ([1]; intragastric, 180 μmol/kg): 4.7 µM·h
AUC0–8h in plasma, intact compound ([1]; intragastric, 360 μmol/kg): 8.6 µM·h
bioavailability [2]: 29.8%
half-life [2]: 1.48 h
cytotoxicity on SH-SY5Y cells (SH-SY5Y cells [3]): insignificant cytotoxicity
neuroprotection: cell viability against Aβ peptide (25–35)-induced cell deaths (SH-SY5Y cells [4]): elevated cell viabilities
crossing of the blood–brain barrier [5, 10]: could cross the blood–brain barrier
safety and tolerance [5, 10]: safe and had good tolerance with adverse effects of nausea, diarrhea, and weight loss
Aβ42 and Aβ40 levels in the cerebrospinal fluid [5]: reduced

COc1ccc(/C=C/c2cc(O)cc(O)c2)cc1O [RHA, 3,5,3′-trihydroxy-4′-methoxystilbene]
neuroprotection: cell viability against Aβ peptide (25–35)-induced cell deaths (SH-SY5Y cells [4]): elevated cell viabilities
IC50 (Aβ peptide (1–42)): 2.93 µM
viability at 10 µM ([6]; SH-SY5Y neuroblastoma cells): 80%
stimulation of neurite outgrowths (SH-SY5Y cells [7]): stimulate neurite outgrowths; also recorded: showed stimulated activities toward neurite outgrowths; also recorded: showed stimulatory activity in neurite outgrowths
total neurite lengths in living SH-SY5Y cells, fold of the control (SH-SY5Y cells [7]; calculated): 1.375 fold
IC50 (recombinant human AChE): 322 µM
IC50 [8]: 57.8 µM

Cc1c(C)c2c(c(C)c1O)CCC(C)(C(=O)O)O2 (stereo not shown) [Trolox, 6-hydroxy-2,5,7,8-tetramethylchroman-2-carboxylic acid, reference compound]
IC50 [8]: 83.1 µM

COc1cc2c(cc1OC)C(=O)C(CC1CCN(Cc3ccccc3)CC1)C2 (stereo not shown) [donepezil, reference compound]
step-through latency, acquisition trial (first day) [9]: no significant difference among the groups
step-through latency, retention trial (second day) ([9]; vs control p < 0.05): longer staying time

Oc1cc(O)cc(C=Cc2c(O)cccc2O)c1 [GNT, 3,5,2′,6′-tetrahydroxystilbene]
cytotoxicity on SH-SY5Y cells (SH-SY5Y cells [3]): insignificant cytotoxicity
neuroprotection: cell viability against Aβ peptide (25–35)-induced cell deaths (SH-SY5Y cells [4]): elevated cell viabilities
IC50 (Aβ peptide (1–42)): 1.76 µM
viability at 10 µM [6]: 80%
stimulation of neurite outgrowths (SH-SY5Y cells [7]): not PIC nor GNT; also recorded: not PIC and GNT
IC50 (recombinant human AChE): 276 µM
IC50 [8]: 97 µM
